Experiments:
[1] = test system: Leishmania donovani; test: Leishmania intramacrophage assay; format: functional, organism-based; settings: for IC50: Leishmania donovani
[2] = microbe, parasite or virus in culture; settings: Mycobacterium tuberculosis, 96 h, read-out: pIC50 (converted)
[3] = microbe, parasite or virus in culture; settings: Mycobacterium tuberculosis, 72 h, read-out: pIC50 (converted)

SMILES | IC50 [1] [µM] | other results
CC1CCCN(Cc2coc(-c3cccc(F)c3)n2)C1 (configuration not stated) | > 50.1 | –
OC(c1ccccc1)C1CCN(Cc2csc(-c3ncccn3)n2)CC1 (configuration not stated) | > 50.1 | –
c1ccc(C2CCN(c3cncc(-n4cccn4)n3)CC2)cc1 | > 50.1 | –
CCC(CO)NC(=O)c1ccc2ccc(N(C)CC3CC3)n2c1 (configuration not stated) | > 50.1 | –
CCN1CCCC(O)(c2nc(C)c(CCOc3ccc(F)cc3)s2)CC1 (configuration not stated) | > 50.1 | –
CCN1CCCC(O)(c2nc(C)c(CCOc3ccccc3F)s2)CC1 (configuration not stated) | > 50.1 | –
CCN1CCCC(O)(c2nc(C)c(CCOc3ccccc3Cl)s2)CC1 (configuration not stated) | > 50.1 | –
O=C(C1CCC1)N1CCC(c2ncc3c(n2)CCNC3)CC1 | > 50.1 | –
CCC(=O)N1CCC(c2ncc3c(n2)CCNC3)CC1 | > 50.1 | –
CC1CCCN(CC(=O)N2CCC(c3ncc4c(n3)CCNC4)CC2)C1 (configuration not stated) | > 50.1 | –
CC(NC(=O)Cn1ccnc1)c1ccc(OCC2CC2)c(F)c1 (configuration not stated) | > 50.1 | –
Cc1sc2nc(C(F)(F)F)nc(N3CCN(C)CC3)c2c1C | > 50.1 | –
Cc1sc2nc(C(F)(F)F)nc(N3CCCN(C)CC3)c2c1C | 46.2 | –
Cc1sc2nc(C(F)(F)F)nc(N3CCN(S(C)(=O)=O)CC3)c2c1C | > 50.1 | –
Cc1sc2nc(C(F)(F)F)nc(N3CCC(NS(C)(=O)=O)CC3)c2c1C | > 50.1 | –
CC(=O)N1CCN(c2nc(C(F)(F)F)nc3sc(C)c(C)c23)CC1 | > 50.1 | –
Cc1cnn(-c2cccc(N3CCCC3)n2)c1 | > 50.1 | –
NS(=O)(=O)NCC1(c2ccccc2Br)CC1 | > 50.1 | –
CN(c1ncnc2c1CCC2)C1CCCN(c2cccnn2)C1 (configuration not stated) | > 50.1 | –
Cc1ccc(N2CCCC(N(C)c3ncnc4c3CCC4)C2)nn1 (configuration not stated) | > 50.1 | –

SMILES | IC50 [1] [µM] | other results
CN(c1ncnc2sccc12)C1CCCN(c2cccnn2)C1 (configuration not stated) | > 50.1 | –
CN(c1ncnc2c1cnn2C)C1CCCN(c2cccnn2)C1 (configuration not stated) | > 50.1 | –
COCc1nc(CNc2cccc(-c3ncon3)c2)cs1 | > 50.1 | –
Cc1ccc(-c2ncc(CNc3cnccc3CO)s2)cc1 | > 50.1 | –
Cc1ccc(-c2ncc(CNc3cnccc3CO)s2)o1 | > 50.1 | –
OCc1ccncc1NCc1cnc(-c2ccccn2)s1 | > 50.1 | –
Cc1ncc(CNc2cnccc2CO)s1 | > 50.1 | –
CCOCCN1CCN(CC(O)c2ccc(OC)cc2)CC1 (configuration not stated) | > 50.1 | –
COc1ccc(C(NCc2cccc(C#N)c2)C(C)C)cc1 (configuration not stated) | > 50.1 | –
COc1ccc(C(NCc2cccc(C#N)c2)C2CC2)cc1 (configuration not stated) | > 50.1 | –
Cc1csc(C2(NCC(O)COc3ccc(F)cc3)CCC2)n1 (configuration not stated) | > 50.1 | –
O=C(NCc1cccnc1)C1=NN(c2ccccc2)C(=O)CN1 | > 50.1 | –
COCc1ccc(CNC(=O)C2=NN(c3ccccc3)C(=O)CN2)cc1 | > 50.1 | –
c1ccc(COC2CCN(c3cncc(-n4cccn4)n3)CC2)cc1 | > 50.1 | –
CNS(=O)(=O)c1cccc(C(C)NCc2cccc(OC)c2)c1 (configuration not stated) | > 50.1 | –
CCS(=O)(=O)c1ccc(N2CCC(NC(=O)CCC(C)C)CC2)cc1 | > 50.1 | –
Cc1nnc(NCC2(c3ccc(Cl)cc3Cl)CCOCC2)c(C#N)c1C | > 50.1 | –
Cc1nnc(NCC2(c3ccccc3)CC2)c(C#N)c1C | > 50.1 | –
Cc1ccccc1C1(CNc2nnc(C)c(C)c2C#N)CCOCC1 | > 50.1 | –
Cc1cc(C(F)(F)F)nc(CCNc2nc(C)nc3sccc23)n1 | > 50.1 | –

SMILES | IC50 [1] [µM] | other results
CCN1CC(C(=O)NCc2ccc3c(c2)nc(C)n3C)CCC1=O (configuration not stated) | > 50.1 | –
CNC(=O)C1CCCN(c2nc(-c3ccco3)nc3c2CCNCC3)C1 (configuration not stated) | > 50.1 | –
COc1c(F)cc(-c2cccc3c2OC(CN)C3)cc1F (configuration not stated) | 19.2 | pIC50 [1]: 4.693; IC50 [2]: 22.9 µM; IC50 [3]: 36.7 µM
NCC1CCCN(c2nc(-c3ccccc3)nc3c2CCNCC3)C1 (configuration not stated) | 27.2 | IC50 [2]: 17.7 µM; IC50 [3]: 11.3 µM
Cc1nc(N2C[C@@H](CN3CCCN(C)CC3)[C@@H](CO)C2)c2ccsc2n1 | > 50.1 | –
Cc1sc2nc(CCN)nc(N(CCN(C)C)CC3CCCO3)c2c1C (configuration not stated) | > 50.1 | –
Cc1nc(N(Cc2ccncc2)CC2CCCO2)c2ccsc2n1 (configuration not stated) | > 50.1 | –
CO[C@H]1[C@@H]2CC[C@H]1CN(c1nc(C)nc3sccc13)C2 | > 50.1 | –
c1ccc(C2CCCN(c3ncnc4c3CCNC4)CC2)cc1 (configuration not stated) | 18.1 | pIC50 [1]: 4.655; IC50 [2]: > 50.1 µM; IC50 [3]: > 50.1 µM
Cc1nc2c(c(NCCc3nc4c(s3)CCCC4)n1)CCNCC2 | 44.3 | –
COc1cc(C)c(-c2ccc(F)c3c2OC(CN)C3)cc1C (configuration not stated) | 7.27 | pIC50 [1]: 4.996; IC50 [2]: > 50.1 µM; IC50 [3]: > 50.1 µM
Cc1nc(C2CCN(C)CC2)cc(N2CCOc3ccc(Cl)cc3C2)n1 | 14.9 | pIC50 [1]: 4.959; IC50 [2]: > 50.1 µM; IC50 [3]: 32.6 µM
Cc1sc2nc(CCN)nc(N3CCS(=O)(=O)CC3)c2c1C | > 50.1 | –
COCCN(Cc1sccc1C)c1nc(C)nc2sccc12 | > 50.1 | –
C1CCc2nnc(CNc3nc(C4CC4)nc4c3CCNCC4)n2CC1 | > 50.1 | –
Cc1sc2nc(CCN)nc(N3CCN(S(C)(=O)=O)CC3)c2c1C | > 50.1 | –
CN(CCc1noc(C2CC2)n1)C(=O)CN1C(=O)COc2ccccc21 | > 50.1 | –
CCOCCN(CCOCC)c1nc(C)nc2sccc12 | > 50.1 | –
